From ChEMBL document CHEMBL1201862, “PubChem BioAssay data set” (2004)
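A five-concentration, 48-hour dose response in 96-well plates underlies each endpoint, interpolated linearly between surrounding concentrations. GI50 marks 50% less growth.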 Calls of active or inactive are those of the source. Rule as the data show it: active = GI50 up to about 1.1 µM and inactive = higher.

Tests used:
Experiment in all cases: NCI tumour cell line growth inhibition, 48 h
[1] = tested on: Malme-3M
[2] = tested on: UACC-62
[3] = tested on: MOLT-4
[4] = tested on: SN12C
[5] = tested on: CAKI-1
[6] = tested on: NCI/ADR-RES
[7] = tested on: T47D
[8] = tested on: Hs-578T
[9] = tested on: OVCAR-8
[10] = tested on: SNB-75
[11] = tested on: HOP-92
[12] = tested on: BT-549
[13] = tested on: HOP-62
[14] = tested on: SK-OV-3
[15] = tested on: MDA-N
[16] = tested on: HCT-15
[17] = tested on: M14
[18] = tested on: NCI-H226
[19] = tested on: RPMI-8226
[20] = tested on: NCI-H460
[21] = tested on: OVCAR-5
[22] = tested on: SW-620
[23] = tested on: K562
[24] = tested on: ACHN
[25] = tested on: HT-29
[26] = tested on: SR
[27] = tested on: NCI-H23
[28] = tested on: NCI-H522
[29] = tested on: PC-3
[30] = tested on: UACC-257
[31] = tested on: A498
[32] = tested on: OVCAR-3
[33] = tested on: COLO 205
[34] = tested on: DU-145
[35] = tested on: EKVX
[36] = tested on: SK-MEL-5
[37] = tested on: MCF7
[38] = tested on: SF-268
[39] = tested on: 786-0
[40] = tested on: A549
[41] = tested on: SF-539
[42] = tested on: MDA-MB-435
[43] = tested on: SK-MEL-2
[44] = tested on: MDA-MB-231
[45] = tested on: IGROV-1
[46] = tested on: OVCAR-4
[47] = tested on: TK-10
[48] = tested on: CCRF-CEM
[49] = tested on: SF-295
[50] = tested on: HCT-116
[51] = tested on: SNB-19
[52] = tested on: UO-31
[53] = tested on: KM12
[54] = tested on: U-251
[55] = tested on: HL-60
[56] = tested on: SK-MEL-28
[57] = tested on: LOX IMVI
[58] = tested on: HCC 2998
[59] = tested on: RXF 393

Compound: CCOC(=O)/C(=C\c1ccc(N(C)C)cc1)S(=O)(=O)C(F)(F)C(F)(F)C(F)(F)C(F)(F)F
- GI50 [1]: > 100 µM (inactive)
- GI50 [2]: > 100 µM (inactive)
- GI50 [3]: > 100 µM (inactive)
- GI50 [4]: > 100 µM (inactive)
- GI50 [5]: > 100 µM (inactive)
- GI50 [6]: > 100 µM (inactive)
- GI50 [7]: > 100 µM (inactive)
- GI50 [8]: > 100 µM (inactive)
- GI50 [9]: > 100 µM (inactive)
- GI50 [10]: > 100 µM (inactive)
- GI50 [11]: > 100 µM (inactive)
- GI50 [12]: 52.6 µM (inactive)
- GI50 [13]: > 100 µM (inactive)
- GI50 [14]: > 100 µM (inactive)
- GI50 [15]: > 100 µM (inactive)
- GI50 [16]: > 100 µM
- GI50 [17]: > 100 µM (inactive)
- GI50 [18]: > 100 µM (inactive)
- GI50 [19]: > 100 µM (inactive)
- GI50 [20]: > 100 µM (inactive)
- GI50 [21]: > 100 µM (inactive)
- GI50 [22]: > 100 µM (inactive)
- GI50 [23]: > 100 µM (inactive)
- GI50 [24]: > 100 µM (inactive)
- GI50 [25]: > 100 µM (inactive)
- GI50 [26]: > 100 µM (inactive)
- GI50 [27]: > 100 µM (inactive)
- GI50 [28]: > 100 µM (inactive)
- GI50 [29]: > 100 µM (inactive)
- GI50 [30]: > 100 µM (inactive)
- GI50 [31]: > 100 µM (inactive)
- GI50 [32]: > 100 µM (inactive)
- GI50 [33]: > 100 µM (inactive)
- GI50 [34]: > 100 µM (inactive)
- GI50 [35]: > 100 µM (inactive)
- GI50 [36]: > 100 µM (inactive)
- GI50 [37]: > 100 µM (inactive)
- GI50 [38]: > 100 µM (inactive)
- GI50 [39]: > 100 µM (inactive)
- GI50 [40]: > 100 µM (inactive)
- GI50 [41]: > 100 µM (inactive)
- GI50 [42]: > 100 µM (inactive)
- GI50 [43]: > 100 µM (inactive)
- GI50 [44]: > 100 µM (inactive)
- GI50 [45]: > 100 µM (inactive)
- GI50 [46]: > 100 µM (inactive)
- GI50 [47]: 13 µM (inactive)
- GI50 [48]: > 100 µM (inactive)
- GI50 [49]: > 100 µM (inactive)
- GI50 [50]: > 100 µM (inactive)
- GI50 [51]: > 100 µM (inactive)
- GI50 [52]: 55.1 µM (inactive)
- GI50 [53]: > 100 µM (inactive)
- GI50 [54]: > 100 µM (inactive)
- GI50 [55]: > 100 µM (inactive)
- GI50 [56]: > 100 µM (inactive)
- GI50 [57]: > 100 µM (inactive)
- GI50 [58]: > 100 µM (inactive)

Compound: Cc1cc(C)nc(NS(=O)(=O)c2ccc(NC(=O)c3ccc4nc5ccccc5c(Nc5ccc(S(=O)(=O)N=C(N)N)cc5)c4c3)cc2)n1
- GI50 [1]: > 100 µM (inactive)
- GI50 [2]: > 100 µM (inactive)
- GI50 [3]: > 100 µM (inactive)
- GI50 [4]: > 100 µM (inactive)
- GI50 [5]: > 100 µM (inactive)
- GI50 [6]: > 100 µM (inactive)
- GI50 [7]: > 100 µM (inactive)
- GI50 [8]: > 100 µM (inactive)
- GI50 [9]: > 100 µM (inactive)
- GI50 [10]: > 100 µM (inactive)
- GI50 [11]: 32.4 µM (inactive)
- GI50 [12]: > 100 µM (inactive)
- GI50 [13]: > 100 µM (inactive)
- GI50 [14]: > 100 µM (inactive)
- GI50 [15]: > 100 µM (inactive)
- GI50 [16]: > 100 µM
- GI50 [17]: > 100 µM (inactive)
- GI50 [18]: > 100 µM (inactive)
- GI50 [19]: > 100 µM (inactive)
- GI50 [20]: > 100 µM (inactive)
- GI50 [21]: > 100 µM (inactive)
- GI50 [22]: > 100 µM (inactive)
- GI50 [59]: > 100 µM (inactive)
- GI50 [23]: 46.6 µM (inactive)
- GI50 [24]: > 100 µM (inactive)
- GI50 [25]: > 100 µM (inactive)
- GI50 [26]: > 100 µM (inactive)
- GI50 [27]: > 100 µM (inactive)
- GI50 [28]: > 100 µM (inactive)
- GI50 [29]: > 100 µM (inactive)
- GI50 [30]: > 100 µM (inactive)
- GI50 [32]: > 100 µM (inactive)
- GI50 [33]: > 100 µM (inactive)
- GI50 [34]: > 100 µM (inactive)
- GI50 [35]: > 100 µM (inactive)
- GI50 [36]: > 100 µM (inactive)
- GI50 [37]: > 100 µM (inactive)
- GI50 [38]: > 100 µM (inactive)
- GI50 [39]: > 100 µM (inactive)
- GI50 [40]: > 100 µM (inactive)
- GI50 [41]: > 100 µM (inactive)
- GI50 [42]: > 100 µM (inactive)
- GI50 [43]: > 100 µM (inactive)
- GI50 [44]: > 100 µM (inactive)
- GI50 [45]: > 100 µM (inactive)
- GI50 [46]: > 100 µM (inactive)
- GI50 [47]: > 100 µM (inactive)
- GI50 [48]: 68.5 µM (inactive)
- GI50 [49]: > 100 µM (inactive)
- GI50 [50]: > 100 µM (inactive)
- GI50 [51]: > 100 µM (inactive)
- GI50 [52]: > 100 µM (inactive)
- GI50 [53]: > 100 µM (inactive)
- GI50 [54]: > 100 µM (inactive)
- GI50 [55]: > 100 µM (inactive)
- GI50 [56]: > 100 µM (inactive)
- GI50 [57]: > 100 µM (inactive)
- GI50 [58]: > 100 µM (inactive)
